Experiments:
[1] = system: spheroid CD24-sh and CD24-Ctrl BFTC 905, BFTC 909, and 5637 cells; assay: Apoptosis assay (PE Annexin V / 7-AAD flow cytometry) after CDDP; type: cell-based; conditions: 5 μM CDDP, 72 h; spheroid cells with CD24 knockdown
Protocol: (§1) FIG. 2A-2E. The chemoresistant and tumorigenic abilities attenuated by CD24 knockdown in BFTC 905, BFTC 909, and 5637 cell lines. (FIG. 2A) Cell viability after 5 μM cisplatin (CDDP) treatment for 72 h in the spheroid CD24-sh cells, as measured by MTT assay. Cell viability was expressed as the ratio of absorbance values of the spheroid CD24-sh cells related to the spheroid CD24-Ctrl cells considered as 1.0. Data are from three independent experiments. (FIG. 2B) An apoptosis assay of spheroid CD24-sh cells treated with 5 μM CDDP for 72 h. Upper, representative images of early apoptosis (bottom right quadrant) and late apoptosis (top right quadrant); Lower, percentage of apoptotic cells. (FIG. 2C) Western blotting analysis of ABCG2, YAP1, and CD133 in stable CD24-sh and CD24-Ctrl cells. (FIG. 2D) Limiting-dilution xenograft assays in stable spheroid CD24-sh BFTC 909 (upper) and BFTC 905 (lower) cells. Tumor growth was measured after subcutaneous injection of serially diluted spheroid cells (1×10^4, 1×10^3, or 1×10^2 cells per flank) into both flanks of NSG mice (five mice per group). SP, Spheroid. (FIG. 2E) Tumor initiation frequency after the xenotransplantation of spheroid CD24-sh BFTC 909 (upper) and BFTC 905 (lower) cells. […]

[2] = system: spheroid CD24-sh and CD24-Ctrl BFTC 905, BFTC 909, and 5637 cells; assay: Cell viability assay (MTT assay) after cisplatin treatment; type: cell-based; conditions: 5 μM CDDP, 72 h; spheroid CD24-sh vs spheroid CD24-Ctrl cells
Protocol: as §1, with “Spheroid.” for “Spheroid. (FIG. 2E) Tumor initiation frequency after the xenotransplantation of spheroid CD24-sh BFTC 909 (upper) and BFTC 905 (lower) cells.”
Cell viability assay (MTT assay). Cell viability was measured using the 3-(4, 5-dimethyl thiazol-2-yl)-2, 5-diphenyltetrazolium bromide (MTT) Proliferation Assay Kit (ATCC; Manassas, Va., USA) according to the manufacturer's protocol. […]

`N.N.[Cl][Pt][Cl]` [cisplatin] was tested, and the “anti-apoptotic ability against CDDP treatment” value [1] was “CD24 knockdown significantly attenuated the anti-apoptotic ability against CDDP treatment” and the “sensitivity of spheroid cells to CDDP treatment (cell viability)” value [2] was “spheroid CD24-sh cells were more sensitive to CDDP treatment than spheroid CD24-Ctrl cells”.

Source: patent publication US20210355547A1, “NON-INVASIVE URINARY BIOMARKERS FOR THE DETECTION OF UROTHELIAL CARCINOMA OF THE BLADDER” (THE JOHNS HOPKINS UNIVERSITY, priority 2018, published 2021)
